In brackets after ≈: the same amount, converted by molar mass.
Assays:
physchem = type: physicochemical
Protocol: Solubility of biologically active substances, particularly drug substances in lipophilic and hydrophilic solvents. […] The solvents mentioned in the following table were evaluated. Solubilities, determined by high performance liquid chromatography (HPLC) assay of the dissolved drug in water and several non-aqueous vehicles, are given the following table in units of mg/mL. Low solubility of this drug in either water or organic solvents renders it suitable for formulating as a stable surface modified particulate dispersion in a non-aqueous carrier system.

[1] = Precipitation behavior of benzyl benzoate solution transferred to water, optical microscope under polarized light; type: physicochemical
Description: A portion of the ursodiol solution in benzyl benzoate was transferred to water and shaken. A mixture containing oily droplets resulted. […] This observation makes it possible to further prepare compositions of ursodiol utilizing appropriate solvent system and surface active agents so that micron-sized particle will be generated spontaneously upon addition of these compositions in aqueous media.

| Structure (SMILES) | Solubility in pharmaceutically acceptable lipophilic vehicles (physchem) | solubility (physchem; water, Solubility of Itraconazole) [µg/mL] | Size of crystalline particles observed in the mixture ([1]; benzyl benzoate solution in water, optical microscope, polarized light) | Precipitation on transfer of solution to water ([1]; benzyl benzoate solution transferred to water and shaken) |
| --- | --- | --- | --- | --- |
| CCC(C)n1ncn(-c2ccc(N3CCN(c4ccc(OCC5COC(Cn6cncn6)(c6ccc(Cl)cc6Cl)O5)cc4)CC3)cc2)c1=O (stereo not shown) [Itraconazole] | very poorly soluble | 10 (≈ 14.2 µM) | – | – |
| C[C@H](CCC(=O)O)[C@H]1CC[C@H]2[C@@H]3[C@@H](O)C[C@@H]4C[C@H](O)CC[C@]4(C)[C@H]3CC[C@]12C [ursodiol] | – | – | below 10 micron | No precipitation was seen occurring |
